Assay results from patent US9428519B2, “Acylated derivative of homoharringtonine, preparation method therefor, and application thereof” (HANGZHOU BENSHENG PHARMACEUTICAL CO., LTD., priority 2011, dated 2016).
≈ marks a conversion by molar mass, not a printed value.

Tests used:
[1] = tested on: H9 (acute lymphoblastic leukemia, ALL); assay: MTT growth inhibition of leukemia cells, 72 h; assay type: cell-based, human
Method in brief: (§1)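 Seed 6000 cells/well (1640, 10% FBS); add compound at several concentrations, mix; incubate 72 h, 37 °C, 5% CO2; MTT read; % viability vs untreated control; IC50 at 72 h.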

[2] = tested on: NB4 (acute promyelocytic leukemia, AML); assay: MTT growth inhibition of leukemia cells, 72 h; assay type: cell-based, human
Method in brief: as §1

[3] = tested on: K562/adr (drug-resistant, chronic myeloid leukemia, CML); assay: MTT growth inhibition of leukemia cells, 72 h; assay type: cell-based, human
Method in brief: as §1

[4] = tested on: Kasumi-1 (acute myeloid leukemia M2 type, AML-M2); assay: MTT growth inhibition of leukemia cells, 72 h; assay type: cell-based, human
Method in brief: as §1

[5] = tested on: Jurkat (acute lymphoblastic leukemia, ALL); assay: MTT growth inhibition of leukemia cells, 72 h; assay type: cell-based, human; details: Homo sapiens, Jurkat
Method in brief: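 Jurkat human acute lymphoblastic leukemia cells were seeded at 6000 cells per well in 96-well plates containing 1640 medium with 10% fetal bovine serum. Test compounds were added across a range of concentrations, and plates were held at 37° C. in 5% CO2 for 72 hours before viable cells were quantified by MTT.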

[6] = tested on: MGC-803 transplanted tumor of gastric cancer; assay: Inhibition of transplanted tumor of gastric cancer in BALB/c-nu nude mice; assay type: in vivo; details: for Mass of tumor / Tumor Inhibition rate (%): MGC-803 in BALB/c-nu nude mice, 10 days, Day 27
Experimental: Gastric cancer cell lines: MGC-803
(§2) Animal: BALB/c-nu nude mice, 8 weeks, female, purchased from Shanghai Laboratory Animal Center of Chinese Academy of Sciences, China.
(§3) BS-HH-002, wherein BS-HH-002-0.1 indicates a dosage of 0.1 mg/kg each time, BS-HH-002-0.3 indicates a dosage of 0.3 mg/kg each time, BS-HH-002-0.5 indicates a dosage of 0.5 mg/kg each time, and BS-HH-002-1.0 indicates a dosage of 1.0 mg/kg each time.
(§4) Under sterile conditions, the above tumor cells in logarithmic growth phase are collected and injected in an amount of 2×10^7/0.2 ml/nude mice (cell viability>95%) into the right subaxillary of the nude mice by subcutaneous injection, thus establishing a BALB/c-nu nude mice model bearing transplanted tumor of gastric cancer. The mice are administered on the third day after the inoculation, wherein the experimental groups are intragastrically administered in an experimentally designed amount, and the negative control group is intragastrically administered with sterile water. Administration takes place at 8:00 for one time a day, at 8:00 and 14:00 for twice a day, and at 8:00, 14:00 and 20:00 with 6-hour intervals for three times day. The administrations are successive for 10 days. The day before administration is Day 0 and the weight and tumor size are determined approximately every 5 days to produce a plot on weight and tumor growth. On Day 27, the mice are dissected and the tumors are taken out and weighed. Based on a tumor inhibition rate of zero for the control group, the tumor inhibition rate (%) after the effect of the medicament is calculated.
(§5) The values determined are presented as mean±standard error (M±SD). The experimental data for each group are analyzed by the One-way ANOVA method of SPSS 18.0 Statistical Software, and p<0.05 is deemed as having statistically significant difference.

[7] = Body weight and toxicity in tumor-bearing BALB/c-nu nude mice; assay type: in vivo; details: for Weight (g) Final / Weight (g) Initial: 10 days
Experimental: as §2, §3, §4, §5

[8] = tested on: RPMI8226 (multiple myeloma); assay: MTT growth inhibition of multiple myeloma cells, 72 h; assay type: cell-based, human
Method in brief: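 RPMI8226 cells (6000/well) in 1640 medium with 10% FBS were exposed to graded compound concentrations for 72 h at 37 °C, 5% CO2. Viable cells were read by MTT, normalised to untreated control as 100% viability, and 72 h IC50 calculated.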

[9] = 0.1 mg/kg/time, 1 time/day intragastric
[10] = 0.1 mg/kg/time, 2 times/day intragastric
[11] = 0.1 mg/kg/time, 3 times/day intragastric
[12] = 0.3 mg/kg/time, 1 time/day intragastric
[13] = 0.5 mg/kg/time, 1 time/day intragastric
[14] = 0.5 mg/kg/time, 2 times/day intragastric
[15] = 0.5 mg/kg/time, 3 times/day intragastric
[16] = 1.0 mg/kg/time, 1 time/day intragastric
[17] = 1.0 mg/kg/time, 3 times/day intragastric

## COC(=O)C[C@](O)(CCCC(C)(C)OC(C)=O)C(=O)O[C@@H]1C(OC)=C[C@]23CCCN2CCc2cc4c(cc2[C@H]13)OCO4 [BS-HH-002, 6-acetylhomoharringtonine]
[1]; Homo sapiens, MTT
  IC50: 4 ng/mL (≈ 0.00681 µM)
  IC90: 0.01 µg/mL (≈ 0.017 µM)
[1]; vs HHT
  improvement of anti-H9 activity compared with homoharringtonine: more than 5 fold
[2]; Homo sapiens, MTT
  IC50: 2 ng/mL (≈ 0.0034 µM)
  IC90: 6 ng/mL (≈ 0.0102 µM)
[2]; vs HHT
  improvement of anti-NB4 activity compared with homoharringtonine: more than 3 fold
[3]; Homo sapiens, K562/Adr, MTT
  IC50: 0.015 µg/mL (≈ 0.0255 µM)
  IC90: 0.31 µg/mL (≈ 0.528 µM)
[3]; vs HHT
  improvement of anti-K562/adr activity compared with homoharringtonine: more than 3.2 fold
[4]; Homo sapiens, Kasumi 1, MTT
  IC50: 2 ng/mL (≈ 0.0034 µM)
  IC90: 7 ng/mL (≈ 0.0119 µM)
[4]; vs HHT
  improvement of anti-Kasumi-1 activity compared with homoharringtonine: more than 3.4 fold
[5]
  IC50: 3 ng/mL (≈ 0.0051 µM)
  IC90: ≥ 16 µg/mL
[6]; BALB/c-nu nude mice, all dosing regimes 0.1-1.0 mg/kg
  tumor inhibition rate on gastric cancer: more than 40%
[6]; [9]
  Mass of tumor: 0.40 ± 0.18 g
  Tumor Inhibition rate (%): 48.97%
[6]; [10]
  Mass of tumor: 0.46 ± 0.11 g
  Tumor Inhibition rate (%): 40.90%
[6]; [11]
  Mass of tumor: 0.41 ± 0.09 g
  Tumor Inhibition rate (%): 48.14%
[6]; [12]
  Mass of tumor: 0.38 ± 0.13 g
  Tumor Inhibition rate (%): 51.76%
[6]; [13]
  Mass of tumor: 0.44 ± 0.13 g
  Tumor Inhibition rate (%): 43.81%
[6]; [14]
  Mass of tumor: 0.44 ± 0.18 g
  Tumor Inhibition rate (%): 43.43%
[6]; [15]
  Mass of tumor: 0.37 ± 0.18 g
  Tumor Inhibition rate (%): 52.12%
[6]; [16]
  Mass of tumor: 0.43 ± 0.17 g
  Tumor Inhibition rate (%): 44.58%
[6]; [17]
  Mass of tumor: 0.34 ± 0.05 g
  Tumor Inhibition rate (%): 56.67%
[7]; [9]
  Weight (g) Final: 27.18 ± 3.62 g
  Weight (g) Initial: 18.88 ± 0.56 g
[7]; [10]
  Weight (g) Final: 25.63 ± 1.06 g
  Weight (g) Initial: 21.35 ± 0.34 g
[7]; [11]
  Weight (g) Final: 28.50 ± 2.83 g
  Weight (g) Initial: 24.58 ± 0.39 g
[7]; [12]
  Weight (g) Final: 24.30 ± 1.38 g
  Weight (g) Initial: 18.98 ± 0.51 g
[7]; [13]
  Weight (g) Final: 25.78 ± 1.15 g
  Weight (g) Initial: 20.10 ± 0.22 g
[7]; [14]
  Weight (g) Final: 26.68 ± 1.42 g
  Weight (g) Initial: 22.28 ± 0.43 g
[7]; [15]
  Weight (g) Final: 26.33 ± 2.76 g
  Weight (g) Initial: 23.50 ± 0.37 g
[7]; [16]
  Weight (g) Final: 25.95 ± 0.94 g
  Weight (g) Initial: 20.45 ± 0.76 g
[7]; [17]
  Weight (g) Final: 29.98 ± 1.32 g
  Weight (g) Initial: 26.98 ± 0.75 g
[7]; all dosages 0.1-1.0 mg/kg
  toxic and side effect: none of the dosages causes obvious toxic and side effect
[7]; all groups, until Day 27
  animal deaths until dissection: none of the animals has died
[8]
  anti-RPMI8226 (multiple myeloma) effectiveness: particularly effective
[8]; Homo sapiens, RPMI-8226, MTT
  IC50: 3 ng/mL (≈ 0.0051 µM)
  IC90: 0.018 µg/mL (≈ 0.0306 µM)
